Laboratory results published in PMC10786692 (The Journal of Clinical Investigation, 2024).

Columns and labels:
[1] = test system: phospho-(S635)Rad50; assay: Paired tumor biopsy p-Rad50 IHC; assay type: in vivo, human; conditions: four paired biopsies, after 2-week dosing
Experimental: PD sampling took place at baseline (within 7 days prior to dosing) and between days 15 and 22 of dosing (day 14 for intermittent dosing cohorts). PD samples included PBMCs and tumor biopsies. PBMCs were analyzed by immunofluorescence for γ^(S139)H2AX, p-^(S345)Chk1, and total Chk1, as described in Supplemental Methods. Paired tumor biopsies were formalin fixed and analyzed for nuclear p-^(S635)Rad50 and γH2AX by IHC. […]
signatures for heatmap construction were used from MSigDB (49) and cell-type-related transcripts from NanoString annotations and Bindea et al (50). Cell-type deconvolution was performed using CIBERSORTx (51).
Supplementary Pharmacodynamic methods
Formalin fixed paraffin-embedded tumor samples were used. […] H-score was calculated using HALO image analysis (Indica Labs). […] Nuclear ATM (Abcam 32420) IHC staining was carried out on the Ventana autostainer, using DAB detection and assessed by H-score, but samples were only deemed acceptable if lymphocyte staining (internal control) was at least 2+ (moderate) intensity. Cyclin E1 (Invitrogen HE12) staining was carried out on the Ventana autostainer, using DAB detection and the H-score was quantified using HALO image analysis (Indica Labs). Ki67 (Mib-1, Dako M7240) was scored by percent nuclear positivity using a global unweighted method, scoring 4 areas of 100 cells. […]

[2] = Change in full blood count parameters with time (bone marrow toxicity); assay type: in vivo, human; design: Lymphocyte change / Monocyte change / Hb change: unit not given here; conditions: for Neutrophil / Platelet: in 10^9/L (unit assumed)
Experimental: Patients were assessed weekly during cycle 1 and twice weekly thereafter, with safety assessments including blood hematology and biochemistry, physical examination, and toxicity scoring. Safety and tolerability were assessed using Common Terminology Criteria for Adverse Events (CTCAE), version 4.03.

[3] = part B, 160mg (continuous), change from relative day 0, per patient and time point
[4] = part B, 160mg (continuous), per patient and time point
[5] = patient B138, part B, 160mg (intermittent), time point C1D1
[6] = patient B466, part B, 160mg (intermittent), C26D15, relative day 589
[7] = patient B466, part B, 160mg (intermittent), C26D15, relative day 589, change from Day 0
[8] = patient B466, part B, 160mg (intermittent), C27D15, relative day 603
[9] = patient B466, part B, 160mg (intermittent), C27D15, relative day 603, change from Day 0
[10] = patient B466, part B, 160mg (intermittent), C28D15, relative day 617
[11] = patient B466, part B, 160mg (intermittent), C28D15, relative day 617, change from Day 0
[12] = patient B466, part B, 160mg (intermittent), C29D15, relative day 645
[13] = patient B466, part B, 160mg (intermittent), C29D15, relative day 645, change from Day 0
[14] = patient B466, part B, 160mg (intermittent), C30D15, relative day 673
[15] = patient B466, part B, 160mg (intermittent), C30D15, relative day 673, change from Day 0
[16] = patient B466, part B, 160mg (intermittent), C31D15, relative day 701
[17] = patient B466, part B, 160mg (intermittent), C31D15, relative day 701, change from Day 0

Which “p-Rad50 in paired tumor biopsies” value [1] does the source give for `C[C@@H]1COCCN1c1cc(C2([S@](C)(=N)=O)CC2)nc(-c2cc[nH]c3nccc2-3)n1` [ceralasertib] here?
The value was “upregulation”.

And the “Platelets and other hematological parameters, intermittent versus continuous schedule” value ([2]; 160 mg BD, recovering in the treatment break)?
Its value is “more favorable”.

And the Hb change [2, 3]?
Its Hb change is 0.

And the Lymphocyte change [2, 3]?
The Lymphocyte change was 0.

And the Monocyte change [2, 3]?
Its Monocyte change is 0.

What about the Platelet change [2, 3] of the same molecule?
Its Platelet change is 0.

And the Neutrophil [2, 4]?
The Neutrophil was 3.29.

What about the Platelet [2, 4] of the same molecule?
The Platelet was 210.

What about the Hb ([2]; part B, dose cohort 160mg (continuous), per patient and time point) of the same molecule?
The Hb was 13.7.

What about the Hb [2, 5] of the same molecule?
Its Hb is 11.5.

What about the Neutrophil [2, 5] of the same molecule?
The Neutrophil was 8.54.

What about the Platelet [2, 5] of the same molecule?
Its Platelet is 213.

What about the Hb [2, 6] of the same molecule?
The Hb was 101 g/L.

What about the Lymphocyte change [2, 7] of the same molecule?
Its Lymphocyte change is 0.4.

And the Monocyte change [2, 7]?
The Monocyte change was 0.2.

What about the Platelet change [2, 7] of the same molecule?
The Platelet change was 125.

What about the Neutrophil [2, 6] of the same molecule?
The Neutrophil was 4.5.

And the Platelet [2, 6]?
The Platelet was 571.

What about the Hb [2, 8] of the same molecule?
The Hb was 96.

And the Lymphocyte change [2, 9]?
The Lymphocyte change was 0.

What about the Monocyte change [2, 9] of the same molecule?
The Monocyte change was -0.8.

And the Platelet change [2, 9]?
Its Platelet change is -198.

What about the Neutrophil [2, 8] of the same molecule?
Its Neutrophil is 2.7.

And the Platelet [2, 8]?
The Platelet was 248.

What about the Hb [2, 10] of the same molecule?
The Hb was 99.

And the Lymphocyte change [2, 11]?
The Lymphocyte change was 0.

What about the Monocyte change [2, 11] of the same molecule?
Its Monocyte change is 0.2.

And the Platelet change [2, 11]?
The Platelet change was 142.

And the Neutrophil [2, 10]?
The Neutrophil was 2.7.

And the Platelet [2, 10]?
The Platelet was 588.

What about the Hb [2, 12] of the same molecule?
The Hb was 100 g/L.

And the Lymphocyte change [2, 13]?
The Lymphocyte change was 0.5.

And the Monocyte change [2, 13]?
Its Monocyte change is -0.6.

And the Platelet change [2, 13]?
The Platelet change was 143.

And the Neutrophil [2, 12]?
Its Neutrophil is 4.6.

And the Platelet [2, 12]?
Its Platelet is 589.

What about the Hb [2, 14] of the same molecule?
Its Hb is 103 g/L.

And the Lymphocyte change [2, 15]?
Its Lymphocyte change is 0.5.

What about the Monocyte change [2, 15] of the same molecule?
Its Monocyte change is 0.1.

And the Platelet change [2, 15]?
The Platelet change was 118.

What about the Neutrophil [2, 14] of the same molecule?
Its Neutrophil is 3.9.

And the Platelet [2, 14]?
Its Platelet is 564.

What about the Hb [2, 16] of the same molecule?
Its Hb is 101 g/L.

And the Monocyte change [2, 17]?
Its Monocyte change is 0.2.

And the Platelet change [2, 17]?
Its Platelet change is 172.

What about the Platelet [2, 16] of the same molecule?
The Platelet was 618.
